Values quoted from earlier work, collected in US20210215697A1, “Serum Biomarkers” (BerGenBio ASA, priority 2018, published 2021).

Assays:
[1] = system: MOLM13 cell line
[2] = system: Mv4-11 cell line
[3] = system: Kasumi cell line
[4] = system: OCI-M1 cell line
[5] = system: OCI-AML5 cells; settings: Ben-Batalla et al, 2013

| IC50 to Axl inhibitors (in words) ([1]; MOLM13, Ben-Batalla et al, 2013) | IC50 to Axl inhibitors (in words) ([2]; Mv4-11, Ben-Batalla et al, 2013) | IC50 to Axl inhibitors (in words) ([3]; Ben-Batalla et al, 2013) | IC50 to Axl inhibitors (in words) ([4]; OCI-M1, Ben-Batalla et al, 2013) | IC50 to Axl inhibitors (in words) [5] | IC50 ([1]; MOLM13, "responder" AML cell line) | IC50 ([2]; Mv4-11, "responder" AML cell line) | IC50 ([3]; "non-responder" AML cell line) | IC50 ([4]; OCI-M1, "non-responder" AML cell line) | Structure (SMILES) |
| --- | --- | --- | --- | --- | --- | --- | --- | --- | --- |
| low | low | high | high | high |  |  |  |  | Nc1nc(Nc2ccc3c(c2)CC[C@@H](N2CCCC2)CC3)nn1-c1cc2c(nn1)-c1ccccc1CCC2 [BGB324, 1-(6,7-dihydro-5H-benzo[6,7]cyclohepta[1,2-c]pyridazin-3-yl)-N3-((7-(S)-pyrrolidin-1-yl)-6,7,8,9-tetrahydro-5H-benzo[7]annulene-2-yl)-1H-1,2,4-triazole-3,5-diamine] |
|  |  |  |  |  | 450 nM | 140 nM | 1200 nM | 1800 nM | Nc1nc(Nc2ccc3c(c2)CC[C@@H](N2CCCC2)CC3)nn1-c1cc2c(nn1)-c1ccccc1CCC2 [BGB324/R428/bemcentinib, bemcentinib] |
